Test results taken from paper PMC9481151, “Discovery of new symmetrical and asymmetrical nitrile-containing 1,4-dihydropyridine derivatives as dual kinases and P-glycoprotein inhibitors: synthesis, in vitro assays, and in silico studies” (Journal of Enzyme Inhibition and Medicinal Chemistry, 2022).
In brackets after ≈: the same amount, converted by molar mass.

Assays:
[1] = system: HCT-116 cells; experiment: In vitro cell cycle analysis (DNA flow cytometry); format: cell-based, human; details: HCT-116, 24 h, IC50 concentrations
Method: Targeting the cancer cell cycle has been developed as a encouraging approach for cancer therapy.[66]
The cells were centrifuged, frozen in cold 75% ethanol, washed in phosphate buffered saline, resuspended with […] RNase, then stained with […] PI, and analysed with a FACS Calibur (Becton Dickinson, BD, Franklin Lakes, NJ). The cell cycle distributions were determined using Becton Dickinson’s CellQuest software version 5.1.[80]

[2] = system: ACHN; experiment: NCI single dose (10 µM) SRB screen; format: cell-based, human; details: renal cancer, 48 h
[3] = system: A549/ATCC; experiment: NCI single dose (10 µM) SRB screen; format: cell-based, human; details: non-small cell lung cancer, 48 h
[4] = system: NCI-H322M; experiment: NCI single dose (10 µM) SRB screen; format: cell-based; details: non-small cell lung cancer, 48 h
[5] = system: HL-60(TB); experiment: NCI single dose (10 µM) SRB screen; format: cell-based, human; details: leukaemia, 48 h
[6] = system: HCT-116 cells; experiment: In vitro cytotoxicity; details: Homo sapiens, HCT-116, read-out: Cytotoxicity IC50, HCT-116
[7] = system: HCT-116/ADR cells; experiment: cells; details: Homo sapiens, HCT-116, read-out: Cytotoxicity IC50, HCT-116/ADR
[8] = system: HCT-116 cells; experiment: Annexin V–FITC apoptosis assay; format: cell-based, human; details: HCT-116, 10 µM, 24 h
Source text: Apoptosis induction is the most important mechanism by chemotherapeutics killing tumour cells.[62]^,[63] Phosphatidylserine (PS) is translocated from the inside to the outside of the plasma membrane during apoptosis, causing cellular alterations. Annexin-V binds to PS and can be employed as a sensitive probe on the plasma membrane’s outer side.[64]^,[65]
PS externalisation was identified using the apoptosis detection kit (Annexin V-FITC/PI) (BD Biosciences) in accordance with the manufacturer’s guidelines.[79]

[9] = system: BT-549; experiment: NCI single dose (10 µM) SRB screen; format: cell-based, human; details: breast cancer, 48 h
[10] = system: UACC-62; experiment: NCI single dose (10 µM) SRB screen; format: cell-based, human; details: melanoma, 48 h
[11] = target: HER-2 (Homo sapiens, UniProt P04626); experiment: HER-2 kinase inhibitory activity; format: biochemical; details: for HER-2 Potency: (IC50 lapatinib/IC50 Compound)*100; for IC50: read-out: HER-2 IC50 ± SD
Chain of HER-2 (P04626 23-1255): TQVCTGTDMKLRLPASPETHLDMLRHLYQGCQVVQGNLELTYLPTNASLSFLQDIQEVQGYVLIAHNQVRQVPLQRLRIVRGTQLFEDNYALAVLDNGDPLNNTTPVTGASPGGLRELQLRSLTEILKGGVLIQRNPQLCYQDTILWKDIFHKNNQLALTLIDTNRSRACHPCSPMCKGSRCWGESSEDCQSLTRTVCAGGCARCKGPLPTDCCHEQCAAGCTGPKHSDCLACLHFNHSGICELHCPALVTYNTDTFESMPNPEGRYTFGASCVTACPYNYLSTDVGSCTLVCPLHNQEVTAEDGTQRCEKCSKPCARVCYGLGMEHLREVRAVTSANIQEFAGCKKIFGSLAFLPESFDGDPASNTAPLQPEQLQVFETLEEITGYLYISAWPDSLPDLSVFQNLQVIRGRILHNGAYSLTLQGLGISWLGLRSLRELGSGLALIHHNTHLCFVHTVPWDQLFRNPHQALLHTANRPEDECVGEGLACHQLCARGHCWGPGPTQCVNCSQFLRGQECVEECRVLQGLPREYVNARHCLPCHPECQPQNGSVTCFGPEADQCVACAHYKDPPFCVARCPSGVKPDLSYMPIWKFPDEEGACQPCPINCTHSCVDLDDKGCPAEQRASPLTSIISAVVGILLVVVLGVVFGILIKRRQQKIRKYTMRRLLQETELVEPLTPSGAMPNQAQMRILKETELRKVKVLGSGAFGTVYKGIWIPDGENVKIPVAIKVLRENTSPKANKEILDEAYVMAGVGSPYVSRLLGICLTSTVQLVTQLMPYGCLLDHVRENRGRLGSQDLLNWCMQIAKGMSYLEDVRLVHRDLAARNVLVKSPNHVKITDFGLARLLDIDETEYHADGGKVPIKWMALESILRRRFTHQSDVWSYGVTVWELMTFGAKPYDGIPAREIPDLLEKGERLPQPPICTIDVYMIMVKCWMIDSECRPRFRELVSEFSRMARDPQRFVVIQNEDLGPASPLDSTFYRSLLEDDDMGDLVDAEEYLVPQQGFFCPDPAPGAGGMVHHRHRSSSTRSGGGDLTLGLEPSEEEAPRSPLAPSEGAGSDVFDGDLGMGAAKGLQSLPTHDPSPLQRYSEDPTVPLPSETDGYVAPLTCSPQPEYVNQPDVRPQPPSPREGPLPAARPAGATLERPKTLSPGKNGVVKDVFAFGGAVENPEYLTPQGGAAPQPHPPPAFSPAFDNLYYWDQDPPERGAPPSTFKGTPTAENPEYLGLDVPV

[12] = system: Aspergillus flavus; experiment: Agar well diffusion method; details: for zone of inhibition at 1000 µg/mL: Aspergillus flavus, 24 h, read-out: Diameter of inhibition zone, A. flavus; for % activity index, A. flavus: relative to clotrimazole
[13] = system: CAKI-1; experiment: NCI single dose (10 µM) SRB screen; format: cell-based, human; details: renal cancer, 48 h
[14] = system: SF-539; experiment: NCI single dose (10 µM) SRB screen; format: cell-based, human; details: CNS cancer, 48 h
[15] = system: MCF7; experiment: NCI single dose (10 µM) SRB screen; format: cell-based, human; details: breast cancer, 48 h
[16] = system: UACC-257; experiment: NCI single dose (10 µM) SRB screen; format: cell-based, human; details: melanoma, 48 h
[17] = target: BTK (Homo sapiens, UniProt Q06187); experiment: BTK inhibitory activity; format: biochemical; details: for BTK Potency: (IC50 lapatinib/IC50 Compound)*100; for IC50: read-out: BTK IC50 ± SD
Chain of BTK (Q06187 whole entry): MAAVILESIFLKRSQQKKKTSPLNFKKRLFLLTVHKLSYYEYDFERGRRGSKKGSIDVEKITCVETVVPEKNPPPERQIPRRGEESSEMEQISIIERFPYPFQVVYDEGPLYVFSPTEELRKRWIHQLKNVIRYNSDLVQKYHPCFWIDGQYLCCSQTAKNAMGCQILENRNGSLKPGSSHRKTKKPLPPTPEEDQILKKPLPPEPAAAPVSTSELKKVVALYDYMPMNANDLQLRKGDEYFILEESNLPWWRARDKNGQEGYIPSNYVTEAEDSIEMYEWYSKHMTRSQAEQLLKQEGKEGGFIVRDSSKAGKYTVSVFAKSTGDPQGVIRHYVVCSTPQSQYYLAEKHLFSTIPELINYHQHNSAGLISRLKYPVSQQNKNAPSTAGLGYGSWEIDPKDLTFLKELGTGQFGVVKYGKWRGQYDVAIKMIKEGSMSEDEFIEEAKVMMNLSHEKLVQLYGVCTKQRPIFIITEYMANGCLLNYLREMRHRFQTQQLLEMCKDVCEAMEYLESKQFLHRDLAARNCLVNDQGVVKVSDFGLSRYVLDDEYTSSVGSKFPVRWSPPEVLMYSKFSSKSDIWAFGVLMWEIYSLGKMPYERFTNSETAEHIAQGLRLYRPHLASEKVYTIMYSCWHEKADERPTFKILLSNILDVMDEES

[18] = system: UO-31; experiment: NCI single dose (10 µM) SRB screen; format: cell-based, human; details: renal cancer, 48 h
[19] = system: OVCAR-4; experiment: NCI single dose (10 µM) SRB screen; format: cell-based, human; details: ovarian cancer, 48 h
[20] = system: OVCAR-8; experiment: NCI single dose (10 µM) SRB screen; format: cell-based, human; details: ovarian cancer, 48 h
[21] = system: drug-resistant HCT-116/ADR cells; experiment: Potentiation of DOX cytotoxicity (reversal DOX effect, P-gp modulation); format: cell-based, human; details: IC50 (DOX) without modulator / IC50 (DOX) with modulator
[22] = target: EGFR (Homo sapiens, UniProt P00533); experiment: EGFR kinase inhibitory activity; format: biochemical; details: for EGFR Potency: (IC50 lapatinib/IC50 Compound)*100; for IC50: read-out: EGFR IC50 ± SD
Chain of EGFR (P00533 25-1210): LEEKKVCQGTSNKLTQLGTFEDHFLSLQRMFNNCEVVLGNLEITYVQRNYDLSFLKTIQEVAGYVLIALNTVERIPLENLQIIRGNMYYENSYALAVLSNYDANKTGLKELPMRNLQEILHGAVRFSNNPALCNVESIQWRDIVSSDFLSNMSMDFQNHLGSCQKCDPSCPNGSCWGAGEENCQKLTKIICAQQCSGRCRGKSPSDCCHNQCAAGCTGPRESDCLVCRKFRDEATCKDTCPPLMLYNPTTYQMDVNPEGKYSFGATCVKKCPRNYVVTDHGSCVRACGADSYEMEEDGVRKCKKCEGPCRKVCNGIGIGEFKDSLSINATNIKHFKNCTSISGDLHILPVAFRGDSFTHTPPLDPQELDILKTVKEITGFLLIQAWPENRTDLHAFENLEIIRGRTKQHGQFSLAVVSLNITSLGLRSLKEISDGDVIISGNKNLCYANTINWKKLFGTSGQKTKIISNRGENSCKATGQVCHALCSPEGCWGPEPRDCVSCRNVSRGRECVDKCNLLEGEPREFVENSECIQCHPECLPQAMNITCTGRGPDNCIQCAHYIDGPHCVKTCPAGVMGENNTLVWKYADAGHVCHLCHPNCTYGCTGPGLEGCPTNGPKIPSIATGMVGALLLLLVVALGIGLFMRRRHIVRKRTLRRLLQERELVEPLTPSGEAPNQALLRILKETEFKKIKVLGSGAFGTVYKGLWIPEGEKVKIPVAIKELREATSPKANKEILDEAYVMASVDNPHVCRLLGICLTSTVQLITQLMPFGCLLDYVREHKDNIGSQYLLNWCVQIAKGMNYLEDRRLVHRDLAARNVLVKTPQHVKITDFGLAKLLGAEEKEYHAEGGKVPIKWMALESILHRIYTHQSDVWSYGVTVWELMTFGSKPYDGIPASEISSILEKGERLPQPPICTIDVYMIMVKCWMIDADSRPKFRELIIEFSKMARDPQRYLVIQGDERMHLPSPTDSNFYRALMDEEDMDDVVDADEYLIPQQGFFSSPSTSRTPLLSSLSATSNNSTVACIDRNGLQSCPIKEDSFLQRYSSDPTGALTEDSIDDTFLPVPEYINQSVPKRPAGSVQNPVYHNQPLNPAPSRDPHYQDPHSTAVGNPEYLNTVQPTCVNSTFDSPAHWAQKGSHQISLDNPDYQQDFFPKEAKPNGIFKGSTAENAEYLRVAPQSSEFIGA

[23] = system: A498; experiment: NCI single dose (10 µM) SRB screen; format: cell-based, human; details: renal cancer, 48 h
[24] = system: RXF 393; experiment: NCI single dose (10 µM) SRB screen; format: cell-based, human; details: renal cancer, 48 h
[25] = system: C. albicans; experiment: MIC, two-fold microbroth dilution method; details: Candida albicans, read-out: MIC (µg/mL) C. albicans
[26] = system: S. aureus; experiment: MIC, two-fold microbroth dilution method; details: Staphylococcus aureus, read-out: MIC (µg/mL) S. aureus
[27] = system: E. coli; experiment: MIC, two-fold microbroth dilution method; details: Escherichia coli, read-out: MIC (µg/mL) E. coli
[28] = system: B. subtilis; experiment: MIC, two-fold microbroth dilution method; details: Bacillus subtilis, read-out: MIC (µg/mL) B. subtilis
[29] = system: P. aeruginosa; experiment: MIC, two-fold microbroth dilution method; details: Pseudomonas aeruginosa, read-out: MIC (µg/mL) P. aeruginosa
[30] = system: A. flavus; experiment: MIC, two-fold microbroth dilution method; details: Aspergillus flavus, read-out: MIC (µg/mL) A. flavus

Compound | %G0-G1 [1] | %G2-M [1] | %Pre-G1 [1] | GI% ACHN [2] | GI% A549/ATCC [3] | GI% NCI-H322M [4] | GI% HL-60(TB) [5] [%] | IC50 [6] [nM] | GI% BT-549 [9] | GI% UACC-62 [10] | % activity index, A. flavus [12] | GI% CAKI-1 [13] | GI% SF-539 [14] | GI% MCF7 [15] | GI% UACC-257 [16] | GI% UO-31 [18] | GI% OVCAR-4 [19] | GI% OVCAR-8 [20] | GI% A498 [23] | GI% RXF 393 [24] | further results
COC(=O)C1=C(C)NC(C)=C(C(=O)OCc2ccccc2)C1c1cccc(C#N)c1 (racemic) [Compound 2e, (±)-3-Benzyl 5-methyl 4-(3-cyanophenyl)-2,6-dimethyl-1,4-dihydropyridine-3,5-dicarboxylate] | 39.17–43.25% | 26.03–31.84% | 15.57–19.36% | 28% | 31% | – (Only GI% ≥ 10 are shown) | 43 | 1270 ± 420 | – (Only GI% ≥ 10 are shown) | 37% | 40% | 27% | 32% | 29% | 21% | – (Only GI% ≥ 10 are shown) | – (Only GI% ≥ 10 are shown) | 34% | 10% | 14% | IC50 [7]: 29400 ± 450 nM; early apoptosis ratio (lower-right quadrant) [8]: 4.37–6.17%; late apoptosis ratio (upper-right quadrant) [8]: 9.45–11.28%; HER-2 Potency [11]: 95.13%; IC50 [11]: 76.5 ± 0.87 nM; zone of inhibition at 1000 µg/mL [12]: 10 mm; BTK Potency [17]: 74.91%; IC50 [17]: 82.1 ± 1.4 nM; RF (reversal fold activity) [21]: 7.68; EGFR Potency [22]: 67.68%; IC50 [22]: 80.4 ± 1.26 nM
CCOC(=O)C1=C(C)NC(C)=C(C(=O)OCc2ccccc2)C1c1cccc(C#N)c1 (racemic) [Compound 2l, (±)-3- Benzyl 5-ethyl 4-(3-cyanophenyl)-2,6-dimethyl-1,4-dihydropyridine-3,5-dicarboxylate] | 39.17–43.25% | 26.03–31.84% | 15.57–19.36% | 52% | 65% | 30% | 83 | 1110 ± 450 | 68% | 66% | – (Values below 25 are of limited value and not shown as they refer either to inactive or non-diffusing compounds) | 67% | 76% | 78% | 44% | 56% | 28% | 51% | 104% | 55% | IC50 [7]: 15830 ± 130 nM; early apoptosis ratio (lower-right quadrant) [8]: 4.37–6.17%; late apoptosis ratio (upper-right quadrant) [8]: 9.45–11.28%; HER-2 Potency [11]: 89.10%; IC50 [11]: 81.7 ± 0.92 nM; BTK Potency [17]: 96.35%; IC50 [17]: 63.8 ± 0.55 nM; RF (reversal fold activity) [21]: 10.05; EGFR Potency [22]: 72.29%; IC50 [22]: 75.2 ± 0.95 nM
COCCOC(=O)C1=C(C)NC(C)=C(C(=O)OCCOC)C1c1cccc(C#N)c1 [Compound 1f, Di(2-methoxyethyl) 4-(3-cyanophenyl)-2,6-dimethyl-1,4-dihydropyridine-3,5-dicarboxylate] | – | – | – | – (Only GI% ≥ 10 are shown) | – (Only GI% ≥ 10 are shown) | – (Only GI% ≥ 10 are shown) | 10 | – | 12% | – (Only GI% ≥ 10 are shown) | 76% | – (Only GI% ≥ 10 are shown) | – (Only GI% ≥ 10 are shown) | – (Only GI% ≥ 10 are shown) | – (Only GI% ≥ 10 are shown) | – (Only GI% ≥ 10 are shown) | – (Only GI% ≥ 10 are shown) | – (Only GI% ≥ 10 are shown) | – (Only GI% ≥ 10 are shown) | – (Only GI% ≥ 10 are shown) | MIC [25]: 16 µg/mL (≈ 38.6 µM); MIC [26]: 4 µg/mL (≈ 9.65 µM); MIC [27]: 8 µg/mL (≈ 19.3 µM); melting point: 125 to 126 °C; zone of inhibition at 1000 µg/mL [12]: 19 mm; MIC [28]: 2 µg/mL (≈ 4.83 µM); MIC [29]: 16 µg/mL (≈ 38.6 µM); MIC [30]: 16 µg/mL (≈ 38.6 µM)
CC1=C(C(=O)OCc2ccccc2)C(c2cccc(C#N)c2)C(C(=O)OCc2ccccc2)=C(C)N1 [Compound 1g, Dibenzyl 4-(3-cyanophenyl)-2,6-dimethyl-1,4-dihydropyridine-3,5-dicarboxylate] | 39.17–43.25% | 26.03–31.84% | 15.57–19.36% | 52% | 45% | 15% | 62 | 990 ± 580 | – (Only GI% ≥ 10 are shown) | 38% | 56% | 56% | 35% | 53% | 36% | 34% | 33% | 41% | 21% | 36% | MIC [25]: 64 µg/mL (≈ 134 µM); MIC [26]: 64 µg/mL (≈ 134 µM); MIC [27]: 32 µg/mL (≈ 66.9 µM); IC50 [7]: 10610 ± 100 nM; early apoptosis ratio (lower-right quadrant) [8]: 4.37–6.17%; late apoptosis ratio (upper-right quadrant) [8]: 9.45–11.28%; HER-2 Potency [11]: 103.20%; IC50 [11]: 70.55 ± 0.63 nM; zone of inhibition at 1000 µg/mL [12]: 14 mm; MIC [28]: 32 µg/mL (≈ 66.9 µM); MIC [29]: 32 µg/mL (≈ 66.9 µM); MIC [30]: > 64 µg/mL; BTK Potency [17]: 101.99%; IC50 [17]: 60.27 ± 0.42 nM; RF (reversal fold activity) [21]: 23.48; EGFR Potency [22]: 87.44%; IC50 [22]: 62.2 ± 0.76 nM
